Data published in paper PMC11325555, “Interaction of Bisphenol A and Its Analogs with Estrogen and Androgen Receptor from Atlantic Cod (Gadus morhua)” (Environmental Science & Technology, 2024).

Experiments:
[1] = target: T1, Atlantic cod estrogen receptor alpha (gmEra) LBD (Gadus morhua, UniProt U5ILH7); experiment: Luciferase reporter gene assay, gmEra agonism (estrogenic activity) in transfected COS-7 cells; conditions: luciferase reporter gene assay
T1 sequence (U5ILH7 170-455): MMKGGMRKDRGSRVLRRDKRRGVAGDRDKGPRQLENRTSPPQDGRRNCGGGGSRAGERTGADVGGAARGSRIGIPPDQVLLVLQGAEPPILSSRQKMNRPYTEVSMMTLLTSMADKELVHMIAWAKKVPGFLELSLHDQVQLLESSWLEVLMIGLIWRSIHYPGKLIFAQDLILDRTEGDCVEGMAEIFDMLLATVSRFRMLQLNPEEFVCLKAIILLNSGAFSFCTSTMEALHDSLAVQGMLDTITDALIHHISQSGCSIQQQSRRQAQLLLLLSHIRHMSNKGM
Procedure: (§1) Ligand activation of gmEra and gmAra was studied with a luciferase reporter gene assay in COS-7 cells transiently transfected with the pCMX-GAL4(DBD)-gmEra(LBD) or pCMX-GAL4(DBD)-gmAra(LBD) plasmid by using the TransIT-LT1 reagent (TransIT-LT1 Transfection Reagent, Mirus). Cells were seeded into 96-well plates (5000 cells/well) and incubated for 24 h before cotransfection with the plasmid mixture (100 ng/well). The plasmid mixture contained GAL4-UAS luciferase reporter plasmid (tk-(MH100)x4 luc), the pCMX-GAL4(DBD)-gmEra(LBD) or pCMX-GAL4(DBD)-gmAra(LBD) receptor plasmids (2:1 reporter:receptor plasmid mass ratio), and a plasmid constitutively producing the β-galactosidase enzyme used for normalization of transfection efficiency (pCMV- β-Gal). […] The maximum DMSO/methanol concentrations in the exposure wells were 0.5% (v/v) in DMEM medium without phenol red (Sigma-Aldrich). After exposure, cells were lysed, and luciferase and beta-galactosidase activities were measured as luminescence and absorbance (420 nm) after the addition of luciferin and ONPG substrates, respectively, using an Enspire Multimode plate reader (PerkinElmer, Waltham, Massachusetts, USA).
Luciferase reporter gene assays were established with COS-7 cells transiently producing the LBD of gmEra (Figure S1) for evaluating the estrogenic potential of 12 bisphenols.
COS-7 cells transiently transfected with gmEra-LBD were exposed to EE2 (open circles), BPA (black circles), and 11 different BPA analogs (red squares and as indicated) at increasing concentrations. Responses are presented as mean fold activation in luciferase activity in comparison to solvent-exposed cells ± SEM from three independent experiments with three technical replicates (n = 9). The dose–response curves were created using nonlinear regression and the four parameter logistic fit in Graphpad Prism v.9. For comparison, the dose–response curve of BPA (black line) is indicated together with each individual BP tested (red line). *p < 0.05 versus solvent control by one-way ANOVA and Dunnett’s multiple comparison post hoc test.

[2] = tested on: COS-7 cells; experiment: Cytotoxicity toward COS-7 cells (resazurin and CFDA-AM assays); conditions: antiandrogenic reporter assay conditions (with testosterone); highest concentration used; 24 h
Source text: The cytotoxicity of the test compounds toward COS-7 cells was monitored by measuring the metabolic activity and membrane integrity through the conversion of resazurin and 5-carboxyfluorescein diacetate acetoxymethyl ester (CFDA-AM), respectively, as described previously by Pérez-Albaladejo et al.[54] […]
used as a negative control.
Figure S2. Assessing metabolic activity (resazurin) and cell membrane integrity (CFDA-AM) in COS-7 cells after BP exposures. COS-7 cells were exposed to three concentrations of each BP, as well as three concentrations […]
exposed at 37 °C and 5 % CO2 for 24 hours. Cytotoxicity is indicated by a reduction in the fluorescent signal (denoted as % Cell survival) relative to the solvent control (DMSO, dotted line) adjusted to 100 %. A reduction in cell viability exceeding 20 % is generally regarded as cytotoxic (indicated with a red dotted line) (ISO, I. 2009.
10993–5: 2009 Biological evaluation of medical devices—part 5: tests for in vitro cytotoxicity. International Organization for Standardization, Geneva.).
(1 picture or pasted object on this page, not shown here)

[3] = target: T2, Atlantic cod androgen receptor alpha (gmAra) LBD (Gadus morhua, UniProt D5FIC7); experiment: Luciferase reporter gene assay, gmAra antagonism (antiandrogenic activity), coexposure with 5 nM testosterone; format: cell-based; conditions: BPs 0.003–50 μM with 5 nM testosterone
T2 sequence (D5FIC7 409-718): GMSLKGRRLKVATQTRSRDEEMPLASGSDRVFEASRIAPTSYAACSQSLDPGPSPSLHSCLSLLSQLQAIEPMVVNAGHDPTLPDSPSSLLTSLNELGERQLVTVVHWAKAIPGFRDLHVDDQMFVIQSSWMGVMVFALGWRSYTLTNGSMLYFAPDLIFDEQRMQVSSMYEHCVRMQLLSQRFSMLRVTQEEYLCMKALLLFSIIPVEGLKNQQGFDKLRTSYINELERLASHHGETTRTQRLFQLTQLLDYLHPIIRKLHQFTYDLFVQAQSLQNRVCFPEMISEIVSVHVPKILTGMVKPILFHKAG
Procedure: as §1
The dose–response curves were created using nonlinear regression and the four-parameter logistic fit in Graphpad Prism v.9. *p < 0.05 versus solvent control by ANOVA and Dunnett’s multiple comparison post hoc test.

[4] = tested on: Atlantic cod precision-cut liver slices (PCLS); experiment: PCLS viability, lactate dehydrogenase (LDH) assay; format: cell-based, Atlantic cod (Gadus morhua); conditions: 1µM; 96 h exposure
Procedure: To monitor the viability of the liver tissue, the release of LDH to the medium was quantified with an LDH Cytotoxicity Detection kit (Roche, Basel, Switzerland) according to the manufacturer’s protocol. Briefly, 50 μL of PCLS medium collected at the end of 96 h exposure was pipetted in triplicates into a clear 96-well plate, 50 μL of provided reagent mixture with the substrate was added, and the mixture was incubated for 10 min at room temperature in the dark. Absorbance was measured at 490 nm using an EnSpire plate reader (PerkinElmer, Waltham, USA), with 650 nm reference measurement. The LDH activity was normalized to the liver tissue weight, and statistical analysis was performed as described above for the ELISA data.
Figure S3. Assessment of PCLS tissue viability in BP-treated and DMSO control groups. Data points represent mean ± SD of fold-changes (normalized to DMSO) in LDH activity (in the culture medium) per mg of tissue (n = 5-6). For each compound, increasing concentrations used are arranged bottom up vertically (y-axis), […]
starting with DMSO control. […]
in comparisons between the different concentrations and the corresponding DMSO control. One treatment group […]
Figure S4. Sequence alignment of ligand binding domain of gmEra and hsERa. Alignment was constructed in Jalview using Clustal with default settings. […]

Row | SMILES | gmEra activation, result in words [1] | cytotoxic concentration in COS-7 cells [2] | effect on testosterone-mediated gmAra activity, result in words [3] | LDH activity in PCLS culture medium vs DMSO control, result in words [4]
1 | CC(C)(c1ccc(OCC2CO2)cc1)c1ccc(OCC2CO2)cc1 (centres unmarked) [BADGE] | did not activate gmEra | 50 µM | – | –
2 | Oc1ccc(C2(c3ccc(O)cc3)c3ccccc3-c3ccccc32)cc1 [BPFL] | did not activate gmEra | – | significant increases in gmAr activity | significantly lower LDH activity
